Calls of active or inactive are those of the source.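 The calls were made as follows: active = compounds lowering the signal with a fitted AC50 at or below a set concentration limit; inconclusive = flat curve with 30 to 70% inhibition, or a poor fit; inactive = the rest.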

The target of the test is Caspase recruitment domain-containing protein 9 (Homo sapiens) + E3 ubiquitin-protein ligase TRIM62 (Homo sapiens) (UniProt Q9H257+Q9BVG3). Kind of test: CARD9/TRIM62 protein interaction inhibitors – cell lysate, HEK293FT lysates, Luminex bead readout, dose response (AID 1259338). As to activity change, negative = inhibition: reference of the scale not given here. Conditions: Luminex bead PPI, MFI.
Caspase recruitment domain-containing protein 9 (Homo sapiens) + E3 ubiquitin-protein ligase TRIM62 (Homo sapiens), sequence (Q9BVG3 whole entry, looked up, the tested form may be a part): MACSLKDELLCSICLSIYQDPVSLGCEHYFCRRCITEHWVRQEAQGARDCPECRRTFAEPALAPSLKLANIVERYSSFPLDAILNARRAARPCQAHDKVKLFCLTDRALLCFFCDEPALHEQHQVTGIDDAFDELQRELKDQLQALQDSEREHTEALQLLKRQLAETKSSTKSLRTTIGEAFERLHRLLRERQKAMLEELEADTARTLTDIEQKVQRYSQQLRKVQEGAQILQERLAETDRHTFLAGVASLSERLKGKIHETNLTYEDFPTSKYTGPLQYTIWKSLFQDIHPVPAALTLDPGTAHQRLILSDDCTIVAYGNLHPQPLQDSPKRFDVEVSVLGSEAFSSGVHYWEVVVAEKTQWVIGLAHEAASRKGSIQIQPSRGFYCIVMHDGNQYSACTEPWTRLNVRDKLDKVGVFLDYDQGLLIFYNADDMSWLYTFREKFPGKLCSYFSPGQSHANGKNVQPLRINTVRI
Caspase recruitment domain-containing protein 9 (Homo sapiens) + E3 ubiquitin-protein ligase TRIM62 (Homo sapiens), sequence (Q9H257 whole entry, looked up, the tested form may be a part): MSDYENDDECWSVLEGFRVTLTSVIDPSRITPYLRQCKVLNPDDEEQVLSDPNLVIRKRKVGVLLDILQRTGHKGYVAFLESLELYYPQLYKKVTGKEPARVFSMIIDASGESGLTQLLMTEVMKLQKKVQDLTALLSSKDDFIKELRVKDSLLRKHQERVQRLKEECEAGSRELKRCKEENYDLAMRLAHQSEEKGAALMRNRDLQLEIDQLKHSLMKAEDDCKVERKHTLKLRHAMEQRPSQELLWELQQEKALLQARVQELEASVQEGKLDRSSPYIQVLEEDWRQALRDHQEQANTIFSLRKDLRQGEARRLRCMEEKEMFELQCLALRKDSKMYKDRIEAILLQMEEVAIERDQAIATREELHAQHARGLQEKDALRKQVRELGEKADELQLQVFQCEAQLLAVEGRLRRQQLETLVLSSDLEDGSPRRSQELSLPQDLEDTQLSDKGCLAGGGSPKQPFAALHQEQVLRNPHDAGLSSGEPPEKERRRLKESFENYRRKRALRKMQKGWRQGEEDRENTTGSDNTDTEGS

Consider `Cc1nc2ccccc2nc1CSCc1ccco1`, for which, for the setting “at 80 µM (top of the series)”, the “activity change, negative = inhibition” value is “inactive”. On the same count and under the same terms, in the case of `O=C(Nc1ccon1)c1cc2cccnc2n(Cc2ccccc2)c1=O` it was “inactive”. Usually AC50 stands for the concentration at which the activity in the assay is half-maximal. Consider `O=C(Nc1nccs1)c1cc(-c2ccccn2)nc2c(Cl)cccc12`, for which the AC50 is > 160 µM (inactive). Turning to `C[C@H](CO)N1C[C@H](C)[C@@H](CN(C)C(=O)C2CCCCC2)OCCCC[C@H](C)Oc2ccc(NS(C)(=O)=O)cc2C1=O`, under “at 80 µM (top of the series)”, the “activity change, negative = inhibition” value was “inactive”.

On to `O=C(O)C(c1ccccc1)C(c1ccccc1)c1ccccc1` (stereo not drawn), for which the “activity change, negative = inhibition” value (at 80 µM (top of the series)) is “inactive”. On the same count and under the same terms, under `C[C@H](CO)N1C[C@H](C)[C@@H](CN(C)CC2CCCCC2)OCCCC[C@H](C)Oc2ccc(NS(=O)(=O)c3ccc(Cl)cc3)cc2C1=O` stands “inactive”. Consider `NC(=O)C1(N2CCCCC2)CCN(c2ccc(NC(=O)c3cccc(Cl)c3)cc2C(=O)O)CC1`, for which the AC50 was 14.8 µM. Turning to `O=C(NC(Sc1ncccn1)C(=O)c1ccccc1)c1ccccc1` (stereo not drawn), the “activity change, negative = inhibition” value (at 80 µM (top of the series)) is “inactive”. On the same count and under the same terms, in the case of `N#Cc1c2ccc(OCC(=O)NCc3ccco3)cc2n2ccccc12` it was “inactive”; in that of `CN(c1ccccc1C(=O)NCc1ccco1)S(C)(=O)=O`, “inactive”; in that of `CCOc1cc2c(C#N)c(N3CCNCC3)nc(N)c2c(N)n1`, “inactive”. As to `O=C(NCc1cccnc1)c1ccccc1-c1nc(-c2ccccc2)no1`, the AC50 is > 160 µM (inactive). On to `O=C(COC(=O)c1ccc(S(=O)(=O)NCc2ccco2)cc1)Nc1ccc(Cl)cn1`, for which the “activity change, negative = inhibition” value (at 80 µM (top of the series)) was “inactive”.

In the case of `C[C@H](CO)N1C[C@H](C)[C@@H](CN(C)C(=O)C2CCCCC2)OCCCC[C@H](C)Oc2ccc(NS(=O)(=O)c3ccccc3)cc2C1=O`, the “activity change, negative = inhibition” value (at 80 µM (top of the series)) was “inactive”.

Take `c1ccc(-c2nc(-c3ccco3)n3ccccc23)cc1`: the AC50 was > 76 µM (inactive). Still for that read-out and setting: under `Cc1ccc(N2NC(c3ccc(Br)cc3)=CCC2=O)cc1` stands 50.9 µM. The same measure, in the same setting: in the case of `O=S(=O)(c1ccccc1)N1CC2CN(Cc3ccc(O)cc3)C2C1` (stereo not drawn) it was 22.8 µM. As for `COCC(=O)n1nc(-c2ccco2)nc1NCc1cccs1`, under “at 80 µM (top of the series)”, the “activity change, negative = inhibition” value is “inactive”. Still for that read-out and setting: under `Cc1ccc(Nc2nc(C(=O)Nc3ccc(Br)cc3)nc3ccccc23)cc1` stands “inactive”; under `COC[C@]1(O)CCN(C(=O)CCN(C)S(C)(=O)=O)CC1(C)C`, “inactive”. As for `CCCN1CCCn2nc(CNC(=O)[C@H]3CC[C@@H](N)C3)cc2C1`, the AC50 is 23 µM. In the case of `CCOc1ccc(CNc2nc(-c3nnc(-c4ccc(F)cc4)o3)nc3ccccc23)cc1`, the “activity change, negative = inhibition” value (at 80 µM (top of the series)) is “inactive”. For `CCC12CCCN3CCc4c(n(c5ccccc45)C(O)(C(=O)OC)C1)C32` (stereo not drawn), under “at 38 µM (top of the series)”, the “activity change, negative = inhibition” value was “inactive”. `Nc1ccc(-c2cccc(CN3CCCC3)c2)cc1`: the AC50 was > 160 µM (inactive). The same measure, in the same setting: in the case of `NC(=O)C1(N2CCCCC2)CCN(c2ncc(NC(=O)c3cccc(Cl)c3)cc2C(=O)O)CC1` it was 6.54 µM. `O=C(Nc1cccc2ccccc12)NC1CC1`: for the setting “at 80 µM (top of the series)”, the “activity change, negative = inhibition” value is “inactive”. Same read-out and setting: in the case of `Cc1ccc(-c2cc(C(=O)Nc3ccccn3)c3ccccc3n2)o1` it was “inactive”; in that of `CN1C(=O)C(c2ccccc2[N+](=O)[O-])C(=O)c2ccccc21` (stereo not drawn), “inactive”. For the compound `O=c1oc(/C=C/c2ccc([N+](=O)[O-])s2)nc2ccccc12`, for the setting “at 80 µM (top of the series)”, the “activity change, negative = inhibition” value is “inactive”. The same measure, in the same setting: in the case of `CCN1CCOC(=O)C1CC(=O)Nc1cccc(C)c1` (stereo not drawn) it was “inactive”. Consider `OCc1ccc(O)c2ncccc12`, for which the AC50 is 23.5 µM. As to `Nc1ccccc1Sc1nccc(C(F)(F)F)n1`, the “activity change, negative = inhibition” value (at 80 µM (top of the series)) was “inactive”.

With `Cc1noc(CN(C)C(=O)c2cc(-c3ccco3)nc3c(C)c(Cl)ccc23)n1`, for the setting “at 80 µM (top of the series)”, the “activity change, negative = inhibition” value is “inactive”. Still for that read-out and setting: under `C[C@H](CO)N1C[C@H](C)[C@@H](CN(C)C(=O)C2CCCCC2)OCCCC[C@H](C)Oc2ccc(NS(=O)(=O)c3ccc(Cl)cc3)cc2C1=O` stands “inactive”; under `O=C(Nc1nnc(-c2ccco2)s1)c1ccccc1`, “inactive”.

On to `Cc1ccc(-c2cc(C(=O)NCc3ccco3)c3ccccc3n2)o1`, for which the AC50 is 75 µM. On to `O=C(COC(=O)c1ccccc1Oc1ccccc1)NCc1ccco1`, for which the “activity change, negative = inhibition” value (at 80 µM (top of the series)) is “inactive”. Take `NC(=O)C1(N2CCCCC2)CCN(c2ncc(NC(=O)c3cccs3)cc2C(=O)O)CC1`: the AC50 is 21.3 µM. Regarding `COc1ccc(-c2nc(SCC(=O)N3CCN(c4ccccc4OC)CC3)n[nH]2)cc1`, the “activity change, negative = inhibition” value (at 80 µM (top of the series)) is “inactive”. Regarding `O=[N+]([O-])c1c(NCCCO)cc(SCc2ccco2)c2nonc12`, the “activity change, negative = inhibition” value (at 80 µM (top of the series)) was “inactive”. As for `COCCn1c(C)cc(-c2csc(N)n2)c1C`, the “activity change, negative = inhibition” value (at 38 µM (top of the series)) was “inactive”. As for `O=C1CC2(CCN(C(=O)Nc3ccccc3)CC2)CN1Cc1ccc(Cl)cc1`, the AC50 was 68.7 µM. In the case of `O=C(COC(=O)CCC(=O)c1cccs1)NCc1ccco1`, the “activity change, negative = inhibition” value (at 80 µM (top of the series)) is “inactive”. The same measure, in the same setting: under `CC(C(=O)N1CCCC1)N1CCN(c2ccccc2O)CC1` (stereo not drawn) stands “inactive”. Take `Cc1ccc(-c2nnc(-c3nc(Nc4nc5ccccc5s4)c4ccccc4n3)o2)cc1`: the AC50 is 42.1 µM. Take `Cc1cc(C(=O)Nc2nc3c(s2)CCc2ccccc2-3)no1`: the “activity change, negative = inhibition” value (at 80 µM (top of the series)) was “inactive”.

As for `CCc1ccc(Nc2nc(C(=O)NCc3ccc(N(C)C)cc3)nc3ccccc23)cc1`, the AC50 is 49 µM. Consider `O=C(COC(=O)c1cc(-c2ccco2)nc2ccccc12)NCc1ccccc1`, for which, where the note is “at 80 µM (top of the series)”, the “activity change, negative = inhibition” value was “inactive”. Same read-out and setting: in the case of `N#Cc1c(NC(=O)CSc2nc3ccccc3o2)sc2c1CCC2` it was “inactive”; in that of `Nc1c2c(nc3ccccc13)CCN(Cc1ccccc1)C2`, “inactive”. Turning to `COc1c(C(=O)O)csc1Br`, the AC50 is 29.6 µM. As to `COc1ccc(F)c(CN2C[C@H]3CC[C@@H]2CN(Cc2cscn2)C3)c1`, the “activity change, negative = inhibition” value (at 80 µM (top of the series)) was “inactive”. The same measure, in the same setting: in the case of `O=C1CC(c2ccco2)Cc2nc(N3CCc4ccccc4C3)ncc21` (stereo not drawn) it was “inactive”; in that of `O=C(NCc1ccco1)C1CCCN(S(=O)(=O)c2cccc3nonc23)C1` (stereo not drawn), “inactive”. `COc1ccc(S(=O)(=O)N2CCN(C(=O)c3cc4c(s3)CCC4)CC2)cc1`: the AC50 was 63.1 µM. Turning to `COc1ccc(N2Cc3cccc(C(=O)NC(C)CCc4ccco4)c3C2=O)cc1` (stereo not drawn), the “activity change, negative = inhibition” value (at 80 µM (top of the series)) is “inactive”.

As to `O=C(O)c1cc(-c2ccco2)nc2ccccc12`, the “activity change, negative = inhibition” value (at 80 µM (top of the series)) was “inactive”. The same measure, in the same setting: in the case of `COc1ccc(N2CC3=C(N2)c2ccccc2CC3)cc1` it was “inactive”. For `Cc1ccc(C(=O)Nc2cnc(N3CCC(C(N)=O)(N4CCCCC4)CC3)c(C(=O)O)c2)cc1`, the AC50 was 8.64 µM. In the case of `C[C@H](CO)N1C[C@H](C)[C@@H](CN(C)C(=O)C2CCCCC2)OCCCC[C@H](C)Oc2ccc(NS(=O)(=O)c3cccs3)cc2C1=O`, the “activity change, negative = inhibition” value (at 80 µM (top of the series)) was “inactive”. With `NC(=O)C1(N2CCCCC2)CCN(c2ccc(NC(=O)c3ccccc3F)cc2C(=O)O)CC1`, the AC50 was 42 µM. With `Cc1ccc(S(=O)(=O)Nc2ccc3c(c2)C(=O)N([C@H](C)CO)C[C@H](C)[C@@H](CN(C)CC2CCCCC2)OCCCC[C@H](C)O3)cc1`, the “activity change, negative = inhibition” value (at 80 µM (top of the series)) was “inactive”. Still for that read-out and setting: under `O=C(NCc1ccco1)[C@@H]1CSC2c3ccccc3C(=O)N21` (stereo partly drawn) stands “inactive”; under `Cn1cccc1CNCCCSc1ncccn1`, “inactive”; under `CCOc1ccc(-n2c3nc4ccccc4nc3c3c(=O)n(Cc4ccco4)cnc32)cc1`, “inactive”. On the same count and under the same terms, under `O=[N+]([O-])c1ccc2nn(Cc3ccccc3)cc2c1` stands “inactive”. As to `c1cn(CCc2noc(C3CCCC3)n2)c(-c2cc3n(n2)CCCNC3)n1`, the AC50 was 53.7 µM.

With `COc1ccc(CNC(=O)c2nc(Nc3ccc(C)cc3)c3ccccc3n2)cc1`, the “activity change, negative = inhibition” value (at 80 µM (top of the series)) was “inactive”. On the same count and under the same terms, under `O=C(O)COc1ccc(-n2cccc2)cc1` stands “inactive”.

Take `CCSCCNC(=O)c1cncc(Br)c1`: for the setting “at 80 µM (top of the series)”, the “activity change, negative = inhibition” value is “inactive”. Turning to `CCOC(=O)C1CCN(C(=O)CN(Cc2ccccc2)S(C)(=O)=O)CC1`, the AC50 was > 76 µM (inactive). Regarding `Cc1cnc(C)c(N2CCN(C(=O)[C@H]3CC[C@@H](N)C3)CC2)n1`, where the note is “at 80 µM (top of the series)”, the “activity change, negative = inhibition” value was “inactive”. On to `CC(=O)c1ccc(NC(=O)c2noc3c2CCC3)cc1`, for which the AC50 is > 160 µM (inactive).

Regarding `Cc1c(C(=O)OCC2CCCO2)[nH]c2c1C(=O)CC(c1ccco1)C2` (stereo not drawn), the AC50 was > 160 µM (inactive). On the same count and under the same terms, in the case of `O=C(NCC1CCCO1)c1cc(-c2ccco2)nc2ccccc12` (stereo not drawn) it was > 160 µM (inactive). In the case of `O=S(=O)(c1ccc(F)cc1)N1CN(Cc2ccco2)c2nc3ccccc3nc21`, the “activity change, negative = inhibition” value (at 80 µM (top of the series)) was “inactive”. Take `COc1ccc(S(=O)(=O)c2ccccc2)cc1NS(=O)(=O)c1cccc(C(=O)O)c1`: the AC50 was > 160 µM (inactive). Still for that read-out and setting: under `C[C@H](CO)N1C[C@H](C)[C@@H](CN(C)CC2CCCCC2)OCCCC[C@H](C)Oc2ccc(NS(=O)(=O)c3ccc(F)cc3)cc2C1=O` stands 73 µM; under `O=C(NCc1ccco1)c1c2c(nc3ccccc13)CCC2`, > 160 µM (inactive). For `Nc1cc2c(cc1O)CCCC2`, the “activity change, negative = inhibition” value (at 80 µM (top of the series)) was “inactive”. On the same count and under the same terms, under `O=C(O)c1cc(-c2ccc(-c3ccc(F)cc3)o2)nc2ccccc12` stands “inactive”. With `NC(=O)C1(N2CCCCC2)CCN(c2ncc(NC(=O)c3ccc(F)cc3)cc2C(=O)O)CC1`, the AC50 is 44.2 µM. Consider `O=C(CN1CCN(c2ccccc2O)CC1)NC(=O)NC1CCCC1`, for which the “activity change, negative = inhibition” value (at 80 µM (top of the series)) was “inactive”.

The values above are taken from PubChem BioAssay AID1259338 (Broad Institute, 2017).
